# Where a name gives a salt, the structure may show the parent alone.
# Target: T1, human PAH with the R408W mutation (Homo sapiens, UniProt P00439, R408W)
# T1 construct: expressed in transfected cells
# T1 sequence (P00439 1-452 R408W): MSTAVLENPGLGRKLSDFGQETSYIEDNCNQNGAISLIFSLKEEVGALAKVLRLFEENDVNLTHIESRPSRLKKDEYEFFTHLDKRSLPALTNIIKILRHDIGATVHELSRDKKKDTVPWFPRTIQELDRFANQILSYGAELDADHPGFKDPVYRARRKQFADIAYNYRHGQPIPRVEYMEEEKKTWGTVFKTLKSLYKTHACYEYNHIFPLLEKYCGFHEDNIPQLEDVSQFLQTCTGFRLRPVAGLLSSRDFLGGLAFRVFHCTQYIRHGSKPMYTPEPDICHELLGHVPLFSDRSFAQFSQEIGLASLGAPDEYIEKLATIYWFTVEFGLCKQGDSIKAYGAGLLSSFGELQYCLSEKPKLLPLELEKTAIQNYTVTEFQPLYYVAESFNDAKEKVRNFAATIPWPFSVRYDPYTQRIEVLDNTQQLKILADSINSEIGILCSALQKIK
# Assay: Cell Based Phenylalanine Flux Assay
# Parameters: scale not given here
# Details: A375 R408W cells, 24 hrs with compound, then 20 μM sepiapterin and 800 μM 13C9,15N-Phenylalanine for 4 hours; 13C-Tyrosine by LC-MS; average where tested multiple times
row,AC50,Structure (SMILES)
1,"E, E",CC(C)(O)c1nc(C(F)(F)F)c(C(=O)N2CCc3[nH]cnc3C2c2ncc3ccccc3n2)o1 (stereo not shown)

# Same assay, conditions: A375 R408W cells, 24 hrs with compound, then 20 μM sepiapterin and 800 μM 13C9,15N-Phenylalanine for 4 hours; 13C-Tyrosine by LC-MS; average where tested multiple times; read-out: AC50
row,Structure (SMILES),AC50
1,Cc1nc(N)oc1C(=O)N1CCc2[nH]cnc2C1c1ccc2ccccc2n1 (stereo not shown),1000 to 5000 nM
2,O=C(c1nnc(N2CCOCC2)o1)N1CCc2[nH]cnc2C1c1ccc2ccccc2n1 (stereo not shown),> 5000 nM
3,CN(C)Cc1ccc2c(C(=O)N3CCc4[nH]cnc4C3c3ccc4ccccc4n3)cnn2c1 (stereo not shown),1000 to 5000 nM
4,O=C(c1nnc(N2CCOCC2)o1)N1CCc2[nH]cnc2C1c1ncc2ccccc2n1 (stereo not shown),1000 to 5000 nM
5,O=C(c1cnn2cc(N3CCC(O)CC3)ccc12)N1CCc2[nH]cnc2C1c1ncc2ccccc2n1 (stereo not shown),1000 to 5000 nM
6,Cn1cc(-c2nnc(C(=O)N3CCc4[nH]cnc4C3c3cn4ccccc4n3)o2)cn1 (stereo not shown),1000 to 5000 nM
7,Cn1nc(C(=O)N2CCc3[nH]cnc3C2c2ccc3ccccc3n2)c2ccccc21 (stereo not shown),1000 to 5000 nM

# The next lines start with the values.
row,AC50,Structure (SMILES)
1,> 5000 nM,O=C(c1nnc(-c2ncccn2)o1)N1CCc2[nH]cnc2C1c1ncc2ccccc2n1 (stereo not shown)
2,> 5000 nM,FC(F)c1nnc(N2CCc3[nH]cnc3C2c2cc3ccccc3cn2)o1 (stereo not shown)
3,> 5000 nM,"CC1CN(C(=O)c2nnc(NC3CC3)o2)C(c2cc3ccccc3cn2)c2nc[nH]c21 (single isomer, unassigned)"
4,1000 to 5000 nM,CC1CN(c2nnc(-c3ccccn3)o2)C(c2cc3ccccc3cn2)c2nc[nH]c21 (stereo not shown)
5,1000 to 5000 nM,O=C(c1n[nH]c2ccccc12)N1CCc2[nH]cnc2C1c1ccc2ccccc2n1 (stereo not shown) [listing 1 of 2 here]
6,1000 to 5000 nM,Cc1nnc(C(=O)N2CC(C)c3[nH]cnc3C2c2cc3ccccc3cn2)o1 (stereo not shown)
7,> 5000 nM,Cc1nc(-c2ccccn2)oc1C(=O)N1CCc2[nH]cnc2C1c1cn2ccccc2n1 (stereo not shown)
8,1000 to 5000 nM,CC(C)(O)c1cc(C(=O)N2CCc3[nH]cnc3[C@H]2c2cc3ccccc3cn2)no1
9,> 5000 nM,O=C(c1n[nH]c2ccccc12)N1CCc2[nH]cnc2C1c1ccc2ccccc2n1 (stereo not shown) [listing 2 of 2 here]
10,1000 to 5000 nM,"COCc1ccc2c(C(=O)N3CC(C)c4[nH]cnc4C3c3cc4ccccc4cn3)cnn2c1 [(4S, 7S) diastereomer of 3-[5-[6-(methoxymethyl)pyrazolo[1,5]"

# Same assay, conditions: A375 cells expressing human R408W PAH; 24 hrs compound incubation; 13C-Tyrosine by LC-MS; average where tested multiple times; read-out: AC50
row,Structure (SMILES),AC50
1,"Cc1nc(C(C)(C)O)oc1C(=O)N1CCc2[nH]cnc2[C@@H]1c1ncc2ccccc2n1 [Example 142, (R)-(2-(2-hydroxypropan-2-yl)-4-methyloxazol-5-yl)(4-(quinazolin-2-yl)-6,7-dihydro-1H-imidazo[4,5-c]pyridin-5(4H)-yl)methanone hydrochloride]",> 5000 nM
2,"FC(F)(F)c1cnc(N2CCc3[nH]cnc3[C@H]2c2cn3ccccc3n2)nc1 [Example 231, (R)-4-(imidazo[1,2-a]pyridin-2-yl)-5-(5-(trifluoromethyl)pyrimidin-2-yl)-4,5,6,7-tetrahydro-1H-imidazo[4,5-c]pyridine]",< 500 nM
3,"O=C(CCc1nccs1)N1CCc2[nH]cnc2C1c1ccc2ccccc2n1 (stereo in doubt) [Example 272, (S)-1-(4-(quinolin-2-yl)-6,7-dihydro-1H-imidazo[4,5-c]pyridin-5(4H)-yl)-3-(thiazol-2-yl)propan-1-one]",> 5000 nM
4,"O=C([C@H]1CC1(F)F)N1CCc2[nH]cnc2[C@@H]1c1ccc2ccccc2n1 (stereo in doubt) [Example 49, ((R)-2,2-difluorocyclopropyl)((R)-4-(quinolin-2-yl)-6,7-dihydro-1H-imidazo[4,5-c]pyridin-5(4H)-yl)methanone]",< 500 nM
5,"O=C(CC1CC1)N1CCc2[nH]cnc2[C@@H]1c1cn2ccccc2n1 [Example 237, (S)-2-cyclopropyl-1-(4-(imidazo[1,2-a]pyridin-2-yl)-6,7-dihydro-1H-imidazo[4,5-c]pyridin-5(4H)-yl)ethanone]",> 5000 nM
6,"O=C(c1oc(C2(O)CC2)nc1C(F)F)N1CCc2[nH]cnc2C1c1ccc2ccccc2n1 (stereo in doubt) [Example 129, (S)-(4-(difluoromethyl)-2-(1-hydroxycyclopropyl)oxazol-5-yl)(4-(quinolin-2-yl)-6,7-dihydro-1H-imidazo[4,5-c]pyridin-5(4H)-yl)methanone]",1000 to 5000 nM
7,"C[C@@H](O)c1nc(C(F)F)c(C(=O)N2CCc3[nH]cnc3C2c2ccc3ccccc3n2)o1 (stereo in doubt) [Example 120, (4-(difluoromethyl)-2-((R)-1-hydroxyethyl)oxazol-5-yl)((R)-4-(quinolin-2-yl)-6,7-dihydro-1H-imidazo[4,5-c]pyridin-5(4H)-yl)methanone]",< 500 nM
8,"O=C(CCC1CC1)N1CCc2[nH]cnc2[C@H]1c1cn2ccccc2n1 [Example 242, (R)-3-cyclopropyl-1-(4-(imidazo[1,2-a]pyridin-2-yl)-6,7-dihydro-1H-imidazo[4,5-c]pyridin-5(4H)-yl)propan-1-one]",< 500 nM
9,"O=C(c1ocnc1C(F)(F)F)N1CCc2[nH]cnc2C1c1ccc2ccccc2n1 (stereo in doubt) [Example 37, (R)-(4-(quinolin-2-yl)-6,7-dihydro-1H-imidazo[4,5-c]pyridin-5(4H)-yl)(4-(trifluoromethyl)oxazol-5-yl)methanone]",< 500 nM

# Now from value to molecule:
row,AC50,Structure (SMILES)
1,< 500 nM,"CC(C)(C)c1ncc(C(=O)N2CCc3[nH]cnc3[C@H]2c2cc3ccccc3cn2)s1 [Example 316, (R)-(2-(tert-butyl)thiazol-5-yl)(4-(isoquinolin-3-yl)-6,7-dihydro-1H-imidazo[4,5-c]pyridin-5(4H)-yl)methanone]"
2,1000 to 5000 nM,"C[C@@H]1CN(C(=O)c2cnc(-c3ccccn3)o2)[C@H](c2cc3ccccc3cn2)c2nc[nH]c21 [Example 384, ((4R,7R)-4-(isoquinolin-3-yl)-7-methyl-6,7-dihydro-1H-imidazo[4,5-c]pyridin-5(4H)-yl)(2-(pyridin-2-yl)oxazol-5-yl)methanone]"
3,< 500 nM,"O=C(c1cnc(-c2ccccn2)o1)N1CCc2[nH]cnc2[C@H]1c1cc2ccccc2cn1 [Example 308, (R)-(4-(isoquinolin-3-yl)-6,7-dihydro-1H-imidazo[4,5-c]pyridin-5(4H)-yl)(2-(pyridin-2-yl)oxazol-5-yl)methanone]"
4,1000 to 5000 nM,"O=C(c1nnc(-c2cc(C(F)(F)F)ccn2)o1)N1CCc2[nH]cnc2C1c1ccc2ccccc2n1 (stereo in doubt) [Example 108, (S)-(4-(quinolin-2-yl)-6,7-dihydro-1H-imidazo[4,5-c]pyridin-5(4H)-yl)(5-(4-(trifluoromethyl)pyridin-2-yl)-1,3,4-oxadiazol-2-yl)methanone]"
5,< 500 nM,"O=C(c1nnc(-c2ccc(F)cn2)o1)N1CCc2[nH]cnc2[C@H]1c1ncc2ccccc2n1 [Example 168, (S)-(5-(5-fluoropyridin-2-yl)-1,3,4-oxadiazol-2-yl)(4-(quinazolin-2-yl)-6,7-dihydro-1H-imidazo[4,5-c]pyridin-5(4H)-yl)methanone]"
6,1000 to 5000 nM,"C[C@@H]1CN(C(=O)c2cnc(C(C)(C)O)o2)[C@H](c2cc3ccccc3cn2)c2nc[nH]c21 [Example 398, (2-(2-hydroxypropan-2-yl)oxazol-5-yl)((4R,7R)-4-(isoquinolin-3-yl)-7-methyl-6,7-dihydro-1H-imidazo[4,5-c]pyridin-5(4H)-yl)methanone]"
7,< 500 nM,"O=C(c1oc(-c2ccccn2)nc1C(F)(F)F)N1CCc2[nH]cnc2[C@H]1c1cn2ccccc2n1 [Example 256, (R)-(4-(imidazo[1,2-a]pyridin-2-yl)-6,7-dihydro-1H-imidazo[4,5-c]pyridin-5(4H)-yl)(2-(pyridin-2-yl)-4-(trifluoromethyl)oxazol-5-yl)methanone]"
8,< 500 nM,"CC(C)(F)c1nnc(C(=O)N2CCc3[nH]cnc3[C@H]2c2cc3ccccc3cn2)o1 [Example 419, (R)-(5-(2-fluoropropan-2-yl)-1,3,4-oxadiazol-2-yl)(4-(isoquinolin-3-yl)-6,7-dihydro-1H-imidazo[4,5-c]pyridin-5(4H)-yl)methanone]"
9,500 to 1000 nM,"C[C@H]1CN(C(=O)c2nnc(C3CC3)o2)[C@H](c2cc3ccccc3cn2)c2nc[nH]c21 [Example 511, (5-cyclopropyl-1,3,4-oxadiazol-2-yl)((4R,7S)-4-(isoquinolin-3-yl)-7-methyl-6,7-dihydro-1H-imidazo[4,5-c]pyridin-5(4H)-yl)methanone]"
10,< 500 nM,"O=C(c1nnc(-c2ncccn2)o1)N1CCc2[nH]cnc2[C@H]1c1cc2ccccc2cn1 [Example 473, (R)-(4-(isoquinolin-3-yl)-6,7-dihydro-1H-imidazo[4,5-c]pyridin-5(4H)-yl)(5-(pyrimidin-2-yl)-1,3,4-oxadiazol-2-yl)methanone]"
11,1000 to 5000 nM,"O=C(c1nnc(-c2cccnc2)o1)N1CCc2[nH]cnc2[C@@H]1c1ncc2ccccc2n1 [Example 178, (R)-(5-(pyridin-3-yl)-1,3,4-oxadiazol-2-yl)(4-(quinazolin-2-yl)-6,7-dihydro-1H-imidazo[4,5-c]pyridin-5(4H)-yl)methanone]"
12,< 500 nM,"O=C(c1nnc(-c2cc[nH]n2)o1)N1CCc2[nH]cnc2[C@H]1c1cc2ccccc2cn1 [Example 451, (R)-(5-(1H-pyrazol-3-yl)-1,3,4-oxadiazol-2-yl)(4-(isoquinolin-3-yl)-6,7-dihydro-1H-imidazo[4,5-c]pyridin-5(4H)-yl)methanone]"
13,500 to 1000 nM,"Cn1cncc1-c1nnc(C(=O)N2CCc3[nH]cnc3[C@H]2c2cc3ccccc3cn2)o1 [Example 444, (R)-(4-(isoquinolin-3-yl)-6,7-dihydro-1H-imidazo[4,5-c]pyridin-5(4H)-yl)(5-(1-methyl-1H-imidazol-5-yl)-1,3,4-oxadiazol-2-yl)methanone]"

# Source: patent US20250262201A1, “COMPOUNDS AND METHODS USEFUL FOR STABILIZING PHENYLALANINE HYDROXYLASE MUTATIONS” (Agios Pharmaceuticals, Inc., priority 2022, published 2025)
